Like-named read-outs stand apart in the source and are kept apart here.
Key:
[1] = cited from earlier work
[2] = system: glutathione-related enzymes (S-transferase proteins, catalases, oxidation resistance genes); experiment: Expression of glutathione-related enzymes in 3 L cultures (RNA-seq, Western blot); assay type: cell-based, Chinese hamster; conditions: gaseous NO vs control
Protocol: (§1) Gene expression profiles were captured using RNA-seq. Conesa A, Madrigal P, Tarazona S, et al. A survey of best practices for RNA-seq data analysis. Genome Biology. 2016; 17:13. doi:10.1186/s13059-016-0881-8. RNA was extracted with a RNeasy Plus Mini kit (Qiagen) and quantified by absorbance at 260 nm with a NanoDrop 2000 (Thermo Fisher Scientific). The RNA quality was assessed using a RNA 6000 Nano Kit (Agilent) and a Bioanalyzer (Agilent). RNA was fragmented and libraries were prepared using commercial kits (TruSeq RNA Library Prep Kit v2, Illumina). RNA was sequenced on a HiSeq 2500 (Illumina) at the DNA Sequencing & Genotyping Center of the University of Delaware. Data were analyzed at the Bioinformatics Core Facility, Center for Bioinformatics and Computational Biology of the University of Delaware. As the specific genome sequence of the CHO DG44 line was not available, a Chinese Hamster genome draft was used as a reference. Genes with differential expression (false discovery rate <0.001) were further analyzed with DAVID 6.8 (https://david.ncifcrf.gov/), STRING 10.0 (http://string-db.org/) and iProXpress (http://pir.georgetown.edu/iproxpress2/).
NO can oxidize intracellular molecules and thereby change the antioxidant levels within the cell, resulting in oxidative stress that potentially leads to membrane dysfunction, DNA damage and inactivation of proteins. […]

Caspase-3 = target: T1, Caspase-3 (Cricetulus griseus, UniProt Q6JH80); experiment: Caspase-3 activity (EnzCheck Caspase-3 Assay Kit #1) in 3 L cultures; assay type: cell-based, Chinese hamster; conditions: 3 L cultures ± NO 300 ppm, same number of viable cells
T1 construct: endogenous in cells; host or cells: CHO-HBS cells (CHO DG44 derived), 3 L bioreactor cultures
T1 sequence (Q6JH80 29-175 limits assumed): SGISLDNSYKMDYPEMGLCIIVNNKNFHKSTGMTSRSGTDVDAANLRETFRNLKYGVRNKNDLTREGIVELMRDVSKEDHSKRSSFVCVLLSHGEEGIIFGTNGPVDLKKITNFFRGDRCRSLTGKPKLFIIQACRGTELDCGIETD
T1 sequence (Q6JH80 176-277 limits assumed): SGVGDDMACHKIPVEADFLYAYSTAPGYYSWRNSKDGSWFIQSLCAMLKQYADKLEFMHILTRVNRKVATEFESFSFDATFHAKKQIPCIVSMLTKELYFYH
Description: The NO-specific extension of viability correlates with a decrease in Caspase-3 activity (FIG. 20). Capase-3 activity was monitored with an EnzCheck Caspase-3 Assay Kit #1 (Thermo Fisher Scientific) using samples containing the same number of viable cells. All caspase proteases contain a single cystein at the enzyme catalytic site that is essential for activity. […] Thus, the observed lower caspase-3 activity may be due to a specific blockage of the catalytic cysteine residue through formation of nitrosylthiols.

Heme Oxygenase 1 (HO-1) = experiment: HO-1 expression in 3 L cultures (RNA-seq, Western blot); assay type: cell-based, Chinese hamster; conditions: 3 L cultures exposed to the gas, vs control
Protocol: as §1
Exemplary transcript profiles of cells on days 1, 3 and 5 of 3 L cell cultures were generated between control and gaseous NO treated cultures to perform differential gene expression analysis (FIG. 16). […]

[3] = Glycosylation analysis (released glycans, HILIC); assay type: physicochemical; conditions: CHO-HBS cells treated with 300 ppm NO vs control
Description: Glycans were enzymatically released from purified IgGs, labeled with a fluorescent dye, and separated by hydrophilic interaction liquid chromatography (GlycoWorks RapiFluor-MS N-Glycan Kit, Waters). Glycans of IgGs purified from CHO-HBS cells were consistent with the typical patterns reported in the literature for proteins expressed in CHO cells. A heterogeneous population of glycans with high proportion of GOF structure followed by G1F and G2F was observed (FIG. 26).

CHO-HBS cells [4] = experiment: Batch CHO cell process in 3 L bioreactors with gaseous or dissolved candidate Additives (VCD, antibody titer, qP); assay type: cell-based, Chinese hamster; conditions: vs control; for calculated specific cellular productivity (qP) / viable cell density (VCD) / cell growth / antibody titer: 3 L batch cultures; for impact on protein biomolecule production or cell growth: gas sparged into 3 L batch cultures
Protocol: The following candidate gaseous and chemical additives were screened using a batch CHO cell process in a 3 L (2 L working volume) bioreactors. CHO-HBS cells were cultured in CDM4MAb media (HyClone Labaratories; Logan Utah; custom part containing base media cat# SH30801.02 supplemented with an additional 0.5 g/L poloxamer 188) in vented, plain-bottom Erlenmeyer flasks at 3-30×10^5 cells/mL. The cells were cultured for 14-16 days and then inoculated into 3 L semi-batch bioreactors at 3-4×10^5 cells/mL with 2 L working volumes. The bioreactor system monitored and controlled temperature, pH, % CO2, %02, sparge rate, and aeration rate. The bioreactors maintained a sparge rate of 0.1 vvm, 40% DO, and a pH value of 7.10. The pH was controlled by addition of CO2 or 1 N sodium bicarbonate solution. Additionally, 1 M glucose was added and adjusted daily to allow for a glucose consumption rate of 3 g/L/day. Each bioreactor was sampled daily (3-4 mL removed/day) for analysis. Gaseous additives were injected into the bioreactors using the following methods: • Inert Gas Injection (xenon): The bioreactor system controlled the flowrate and composition of oxygen, carbon dioxide, air, and nitrogen that was sparged into each bioreactor. The mixture composition was determined by the dissolved oxygen and pH levels in each reactor. House gas lines for these four gases were filtered and fed into the bioreactor mass flow control system. The effects of xenon were tested by replacing the nitrogen house gas feed with a cylinder containing xenon and replacing the air gas feed with a cylinder containing 21% oxygen and 79% xenon respectively. The system was calibrated for controlling the flowrate of the replacement gas by measuring the bioreactor mass flow controller flowrate for each gas at 12slph using a film flowmeter, then adjusting the gas correction factor for the bioreactor nitrogen or air mass flow controller until the flowrate on the film flowmeter and bioreactor system were the same. […] This allowed the CHO cells to be cultured with the maximum quantity of inert gas. • Reactive Gas Injection (nitric oxide, carbon monoxide, or hydrogen): The bioreactor module controlled the composition and flow of oxygen, air, nitrogen, and carbon dioxide gases as described previously. Reactive gases including nitric oxide, carbon monoxide, or hydrogen were introduced into the gas stream through a tee line connection before the gas mixture entered the bioreactors. The reactive gas flowrate was controlled using a mass flow controller and the flowrate of the bioreactor controlled mixture was adjusted to maintain the total gas flowrate into each reactor at 12slph.

[5] = Antibody assembly by SDS-PAGE (non-reducing / reducing); assay type: physicochemical; conditions: NO-sparged vs control
Description: In the absence of reducing agents, the pool of IgGs consists of three structures: fully assembled IgGs, IgGs missing one light chain, and IgGs missing two light chains. Variations in the proportion of the three structures depend on the production process and intrinsic properties of the IgG molecules. […] In the presence of reducing agents, the three structures collapsed into two forms of approximately 52 and 26 kDa, corresponding to the heavy and light chains, respectively. No major differences were detected between antibodies produced in NO-sparged reactors compared to controls. Byproducts with an apparent molecular mass of 25 kDa were detected on day 10. These species, which might be degradation products of light chains, seemed to be an intrinsic feature of HBS antibodies independent from the NO-based process.

HO-1 = HO-1 expression in shake flask cultures; assay type: cell-based, Chinese hamster; conditions: shake flasks, vs control
Protocol: (§2) Cells were grown in CDM4MAb medium supplemented with poloxamer-188. Flasks were incubated on a shaker at 125 rpm in a humidified incubator at 37° C. and 5% CO2. DETA-NO was dissolved in 0.01 M sodium hydroxide solution at a 0.2 M concentration. Aliquots of DETA-NO solution were added daily to cell cultures to reach a final concentration of 0.09, 0.18 or 0.36 mM DETA-NO. Sodium hydroxide solution (0.01M) was added daily as a negative control. 0.01-1.0 mM DETA-NO release NO at a rate in the low nM/sec range (Bouton, C. and Demple, B., 2000. Nitric oxide-inducible expression of heme oxygenase-1 in human cells translation-independent stabilization of the mRNA and evidence for direct action of nitric oxide. Journal of Biological Chemistry, 275(42), pp. 32688-32693).
(§3) The effects of gaseous NO were partially recapitulated by adding NO-releasing compound DETA-NO daily to cell cultures in shake flasks. Cell growth and viability followed similar trends with addition of DETA-NO as with gaseous NO.

CHO-HBS cells [6] = experiment: DETA-NO added daily to shake flask cultures (cell growth, viability); assay type: cell-based, Chinese hamster; conditions: shake flasks
Protocol: as §2, §3

For `CCN(CC)/[N+]([O-])=N/O.CCNCC` [DEA-NO], the half-life ([1]; buffer, pH 7.4) is given as 2 min.
In the case of `[O-]/[N+](=N\O[C@@H]1O[C@H](CO)[C@H](O)[C@H](O)[C@H]1O)N1CCCC1` [β-Gal-NO], the half-life ([1]; pH 5.6, following activation by β-galactosidase) is listed as “six”.
In the case of `[N]=O` [Nitric Oxide], the “expression of glutathione-related enzymes” value [2] is reported as “stimulates expression”, the Caspase-3 activity (Caspase-3) is reported as “decrease” and the “expression of HO-1 (oxidative stress response)” value (Heme Oxygenase 1 (HO-1)) is reported as “induces expression”. The “fucosylated glycans of IgGs” value [3] was “minor reduction”, the “calculated specific cellular productivity (qP)” value (CHO-HBS cells [4]) was “boosted qP” and the “viable cell density (VCD) / cell growth” value (CHO-HBS cells [4]) was “shifted the cell culture VCD profile”. For the same molecule, the “overall IgG structure” value [5] was “did not seem to impact”.
For `O=NO` [Nitrite, Sodium Nitrite], the “HO-1 expression (oxidative stress response)” value (HO-1) was “does not activate”, the antibody titer (CHO-HBS cells [4]) was “no significant impact” and the “viable cell density (VCD) / cell growth” value (CHO-HBS cells [4]) was “at most a small effect on VCD in the late phase of culture”.
With `O=[N+]([O-])[O-].[Na+]` [Nitrate, Sodium Nitrate] the antibody titer (CHO-HBS cells [4]) was “no effect” and the “viable cell density (VCD) / cell growth” value (CHO-HBS cells [4]) was “no effect”.
In the case of `[Ar]` [Argon], the “impact on protein biomolecule production or cell growth” value (“impact” below) (CHO-HBS cells [4]) is reported as “did not significantly affect”.
For `[Kr]` [Krypton], the “impact” value (CHO-HBS cells [4]) was “did not significantly affect”.
For `CNCCCCCCN(C)/[N+]([O-])=N/O` [MAHMA NONOate], the half-life ([1]; 37° C., pH 7.4) is listed as 1 min.
In the case of `[Xe]` [Xenon], the “impact” value (CHO-HBS cells [4]) is reported as “do not have a significant impact”.
For `NCCN(CCN)/[N+]([O-])=N/O` [DETA-NO, diethylenetriamine-nitric oxide adduct], the “HO-1 expression (oxidative stress response)” value (HO-1) was “HO-1 up regulation”, the viable cell counts (CHO-HBS cells [6]; daily addition, relative to control cultures) was “lower at the stationary phase but increased in the late phase of the culture” and the cell death (CHO-HBS cells [6]; higher concentrations tested) was “increased cell death”. For the same molecule, the half-life ([1]; 37° C., pH 7.4) was 1200 min.
With `[O]N=O` [Nitrogen Dioxide] the antibody titer (CHO-HBS cells [4]) was “strongly negative effect” and the “viable cell density (VCD) / cell growth” value (CHO-HBS cells [4]) was “strongly negative effect”.
For `[HH]` [Hydrogen], the “impact” value (CHO-HBS cells [4]) was “do not have a significant impact”.
With `[C-]#[O+]` [Carbon Monoxide] the “expression of HO-1 (oxidative stress response)” value (Heme Oxygenase 1 (HO-1)) was “did not lead to an increase”, the antibody titer (CHO-HBS cells [4]) was “less impacted” and the “calculated specific cellular productivity (qP)” value (CHO-HBS cells [4]) was “higher than control”. For the same molecule, the “viable cell density (VCD) / cell growth” value (CHO-HBS cells [4]) was “suppressed during the growth phase, but shows higher VCD at the end of the culturing period” and the “overall yield from batch culture” value (CHO-HBS cells [4]; net effect of VCD to qP) was “overall smaller yield”.
For `CC(C)N(CCCN)/[N+]([O-])=N/O` [NOC-5], the half-life ([1]; PBS (pH 7.4), 22° C.) is given as 93 min.
For `CCCN(CCCN)/[N+]([O-])=N/O` [PAPA NONOate], the half-life ([1]; 37° C., pH 7.4) is given as 15 min.
